Experiments:
[1] = tested on: NO production in LPS-stimulated RAW 264.7 macrophages; assay: NO production (Griess assay) in LPS-stimulated macrophages; format: cell-based, murine; conditions: Mus musculus, RAW264.7, 24 h, RAW 264.7, LPS 100 ng/mL, Griess
Procedure: The anti-inflammatory potential of chalcones 1–7 was evaluated in macrophages cultured in the presence or absence (control) of LPS, as depicted in Figure 4. Under basal conditions (unstimulated, control), macrophages produce low levels of nitrites (≈12%). […] Each chalcone was tested at concentrations previously established as non-cytotoxic in macrophages, trying to ensure that observed changes in NO levels were not due to reduced cell viability.
The production of NO was evaluated by measuring nitrite accumulation in culture supernatants using the previously described Griess assay. Cells were seeded at a concentration of 5.0 × 10^4 cells/mL in a 96-well plate (200 μL/well) and allowed to stabilize overnight at 37 °C. Afterwards, the cells were treated with different concentrations of compound solutions and pre-incubated for 1 h at 37 °C. Subsequently, an LPS in PBS solution was added to each well, achieving a final concentration of 100 ng/mL, and the plate was left to incubate for 24 h. An amount of 150 μL of the cell culture supernatant was then transferred to a fresh 96-well plate, and an equal amount of Griess reagent [comprising a 1:1 mixture of 1% (w/v) sulphanilamide in 5% (v/v) phosphoric acid and 0.1% (w/v) naphthylethylenediaminedihydrochloride] was added. Following a 30 min incubation at room temperature in the dark, the absorbance was recorded at 550 nm using a Biotek Synergy HT plate reader (Biotek, CA, USA). The nitrite concentration in the supernatants was determined by comparing the absorbance of each sample to a sodium nitrite standard curve. The results, obtained from at least three independent experiments performed in duplicate, were expressed as a percentage of NO production by cells versus chemical concentration, relative to LPS condition (100%).
Figure 4 NO production by macrophages treated with LPS (100 ng/mL) or not (control) in the presence of chalcones 1–7. Results are expressed as a percentage of NO production by cells treated with LPS (100 ng/mL). Each value represents the mean ± SEM of four independent experiments in duplicate. Statistical analysis: one ANOVA with Dunnett’s multiple comparisons test, where p< 0.05 was considered significant. *** p < 0.005, relative to the control, and ^# p < 0.05, ^## p < 0.01, ^### p < 0.0005, and ^#### p < 0.0001, relative to LPS condition.

[2] = tested on: HaCaT keratinocytes; assay: Resazurin cell viability assay in HaCaT keratinocytes; format: cell-based, human; conditions: HaCaT, 24 h; for cytotoxicity / impact on keratinocyte viability: at 2.5 μM and 7.5 μM
Procedure: (§1) To evaluate the effects of chalcones 1–7 on cell viability after 24 h, a resazurin assay was performed using two cell lines: human HaCaT keratinocytes (HaCaT, CLS 300493), representing the epidermal layer, and murine RAW 264.7 macrophages (RAW 264.7, ATCC TIB-71), which model immune cells involved in dermal inflammatory responses. For the keratinocyte cell line, all seven brominated and non-brominated chalcones were tested across a concentration range from 2.5 μM to 125 μM (Figure 2).
(§2) Human keratinocytes (HaCaT, CLS 300493, Eppelheim, Germany) were cultured in DMEM supplemented with heat-inactivated FBS, and a penicillin and streptomycin antibiotic solution. The cell culture of keratinocytes was washed with 6 mL of phosphate buffer solution with 0.05% EDTA (Sigma-Aldrich, St. Louis, MO, USA) and detached using 3 mL of 0.05% trypsin + 0.02% EDTA in PBS solution when the cells reached 70–80% confluence in cell culture flasks. DMEM was also used to cultivate the mouse macrophage cell line (RAW 264.7, ATCC TIB-71, Manassas, VA, USA) together with 10% (v/v) non-inactivated FBS, 1.5 g/L sodium bicarbonate, and 100 U/mL penicillin and 100 μg/mL streptomycin stock (antibiotic solution). The macrophage culture was mechanically detached using a cell scraper, and the final amount of DMEM media with the cells was sub-cultured in a 1:10 ratio to the cellular suspension.
(§3) The resazurin reduction assay was employed to evaluate the metabolic activity of human epidermal keratinocyte (HaCaT) and murine macrophage (RAW264.7) cell lines, as outlined in a previous study. In brief, HaCaT cells (1.0 × 10^5 cells/mL) and RAW264.7 cells (5.0 × 10^4 cells/mL) were seeded in 96-well plates (200 μL/well) and incubated overnight at 37 °C to allow for cell attachment. Following this, the cells were treated with different concentrations of the test compounds and kept at 37 °C for 24 h. After 20 h, resazurin (500 μM in sterile phosphate buffer solution, pH 7.4) was added to each well to achieve a final concentration of 50 μM, followed by an additional incubation of 4 h. Absorbance was then measured at wavelengths of 570 and 620 nm using a SpectraMax Plus 384 absorbance microplate spectrophotometer (Molecular Devices, San Jose, CA, USA). Each experiment was conducted in triplicate, with a minimum of three independent assays. The results were graphically presented as the percentage of cell viability versus chemical concentration, relative to the control.
(§4) Figure 2 Cytotoxicity of chalcones 1–7 using a resazurin reduction assay in HaCaT cells by comparison with the control. Bar graphs represent the mean ± SEM of at least three independent experiments performed in triplicate. Statistical analysis: one ANOVA with Dunnett’s multiple comparisons test, where p < 0.05 was considered significant when compared to the control condition. * p < 0.05, ** p < 0.01, and *** p < 0.0005.

[3] = as above; format: cell-based, human; conditions: human, HaCaT keratinocytes, resazurin, read-out: IC50 (cell viability, cytotoxicity)
Procedure: as §1, §2, §3, §4

[4] = tested on: RAW 264.7 macrophages; assay: Resazurin cell viability assay in RAW 264.7 macrophages; format: cell-based, murine; conditions: RAW 264.7, 24 h
Procedure: as §1
To evaluate the cytotoxic effects of brominated and non-brominated chalcones 1–7 on macrophages, different concentration ranges were applied based on the response profiles previously observed for keratinocytes (Figure 3). […] For this set of chalcones, a similar tendency was observed: a lower cytotoxic characteristic of chalcone 4, which contained bromine atoms in both aromatic rings, compared to chalcones 5 (brominated in only the aromatic A ring) and 6 (non-brominated).
as §2
as §3, with “The results were graphically presented as the percentage of cell viability versus chemical concentration, relative to the control.” left out

Row | Structure (SMILES) | IC50 [1] [µM] | cytotoxicity / impact on keratinocyte viability [2] | IC50 at 24 h [3] [µM] | concentration up to which acceptable levels of cytotoxicity were observed [4] | reduction in cellular viability ([2]; at 2.5 μM) [%]
1 | COc1cc(Br)cc(/C=C/C(=O)c2c(Br)c(Br)cc(OC)c2OC)c1OC [Chalcone 4] | 0.97 ± 0.22 | no significant impact | 11.7 ± 1.34 | up to 7.5 μM | 
2 | COc1cccc(/C=C/C(=O)c2c(Br)c(Br)cc(OC)c2OC)c1OC [Chalcone 5] | 0.99 ± 0.54 | no significant impact | 30.4 ± 2.66 | up to 1 μM | 
3 | COc1cccc(/C=C/C(=O)c2cccc(OC)c2OC)c1OC [Chalcone 6] | 5.95 ± 1.49 |  | 14.7 ± 3.97 | up to 1 μM | ~25
